Data taken from patent US12214080B2, “Micronized lipids” (MCAL Therapeutics Inc., priority 2021, dated 2025).
Entries after “also recorded” stand apart in the source; their conditions may differ.

Assays:
[1] = Chemical and isomeric stability (1,2-EPRG to 1,3-EPRG acyl migration), NMR analysis; type: physicochemical
Excerpt: This led to development of the delivery of solid MCAL-201 as a suspension of crystalline or amorphous micronized solid particle suspended in a water-based formulation isotonic with tear. Although MCAL-201 crystalline drug substance floated on phosphate buffered saline (PBS) it could be suspended following micronization to 1-10 micron particles which could be stably suspended in PBS with the aid of polysorbate 80 as a wetting agent and xanthan gum to adjust density and viscosity of the drug product.

[2] = Physical stability of the micronized suspension toward separation of particles; type: physicochemical; details: suspension in PBS with polysorbate 80 and xanthan gum, room temperature
Excerpt: Treatment of these particles with poly-sorbate 80 (0.3% w/w) as a wetting agent affords a suspension of the micronized particles in a mixture of xanthan gum (0.1-0.3% w/w, See FIG. 3) in Phosphate Buffered Saline (PBS, pH 6-8, 260-320 mOsm/L) suitable for administration as a stably suspended topical drop or suspension for injection.

[3] = tested on: healthy dogs; experiment: Tear film break-up time (TBUT) after topical ocular administration; type: in vivo, dog; details: 5 healthy adult dogs, single administration (FIG. 6)
Experimental: (§1) A non-GLP topical ocular administration dose range-finding pharmacology and toxicity study of MCAL-201 was conducted in naïve dogs. The primary study objective was to assess the tolerability of topical ocular administration of MCAL-201 in dogs with a secondary objective to obtain data supporting pharmacological activity in healthy dogs.
(§2) The effects of vehicle and 0.1, 0.5, 1, 3 and 10 mg/mL MCAL-201 delivered as a 35 μL drop bilaterally QD (0.0035, 0.0175, 0.035, 0.105 and 0.35 mg/eye/day) were evaluated in Part I. The dosing regimen is summarized in 3.
(§3) Scoring of the ocular surface and anterior segment of the eye was performed using the SPOTS system by a board-certified veterinary ophthalmologist. SPOTS was performed for each concentration evaluated. To measure TBUT, fluorescein was instilled in the eye and the eye was manually closed and then gently opened to simulate a blink. The time interval between the opening of the eye and the first sign of disruption of the uniform tear film, as indicated by breaks in the fluorescein was recorded in seconds. The procedure was repeated three times on both eyes, first right than left eye. After BID dosing with 10 mg/mL MCAL-201, SPOTS was also performed at 48 hours after the last dose.

[4] = Solubility and general physicochemical properties of MCAL-201
Experimental: The general and physiochemical properties of MCAL-201 are: • 1,2-EPRG has a molecular weight of 611.05 g/mol • Empirical formula: C39H78O4 • Appearance: White powder • Particle size: 1-10 μm (post micronization) • Hygroscopicity: Low • Chirality: Racemic • Enantiomeric excess: 0 • Melting point: 57° C. • Solubility: Insoluble in water. Soluble in chloroform (40 mg/mL) and castor oil (25 mg/mL)
However, preparation of a water soluble cyclodextrin inclusion complex of MCAL-201 was used in nonclinical efficacy studies. In addition, solutions of MCAL-201 in castor oil which can be emulsified to micron sized liquid particles in aqueous buffers can be used to deliver MCAL-201 directly to the tear film lipid layer.

[5] = tested on: naïve dogs; experiment: Non-GLP topical ocular dose range-finding toxicity and tolerability study (SPOTS, IOP, STT); type: in vivo
Experimental: as §1, §2, §3

CCCCCCCCCCCCCCCCCCCCOCC(CO)OC(=O)CCCCCCCCCCCCCCC (racemic) [MCAL-201, 1-O-eicosanyl-2-palmitoyl-rac-glycerol]
1,3-EPRG isomeric content ([1]; after jet mill micronization, NMR (FIG. 4)): 1.15 mol % | Long-term chemical stability in the liquid solution phase (acyl migration of the palmitoyl group from 2 to 3 position) ([1]; liquid solution phase): lacked long-term chemical stability | Isomeric stability in the suspension formulation, duration demonstrated ([1]; micronized MCAL-201 in suspension formulation, room temperature): 6 weeks | 1,3-EPRG isomeric content ([1]; solid micronized suspension stored at room temperature for 6 weeks, NMR (FIG. 5)): 0.0991 mol % | Isomeric stability in the solid phase compared with solution ([1]; solid phase): far greater than in solution | Physical stability of the micronized suspension (floating, sinking or aggregation), duration demonstrated [2]: > 6 months | Tear film break-up time (TBUT) [3]: extended TBUT | Hygroscopicity [4]: Low | Solubility in water ([4]; water): Insoluble; also recorded: extreme insolubility | Ocular or systemic adverse events ([5]; any time or concentration evaluated (up to 10 mg/mL OU BID for 48 hours)): no ocular or systemic adverse events | Tolerability ([5]; topical ocular 35 μL drop, up to 10 mg/mL OU BID for 48 hours): well tolerated
